# Like-named read-outs stand apart in the source and are kept apart here.
# Tests used:
# [1] = Pharmacokinetic study, intravenous administration of aqueous solution of Working Example 1; format: in vivo, Sprague-Daweley IGS rats; details: i.v.; for C0 / AUC(0-t): Sprague-Dawley IGS, rat, blood, iv, average of three; for AUC(0-t): read-out: AUC0-24
# From the text: The aqueous solution obtained in Working Example 1 was filtered and sterilized with Millex (registered trademark)-GV (0.22 μm; available from Millipore Japan Corporation/Merck Millipore Corporation) and intravenously administered to female and male Sprague-Daweley IGS rats (6 weeks old) to investigate the pharmacokinetics of Compound (I).
# As groups of animals, female and male Sprague-Daweley IGS rats (available from Charles River Laboratories Japan, Inc.) were used. The rats were 6 weeks old. The male rats had body weights of 166 to 189 g, and the female rats had body weights of 123 to 145 g.
# The rats were quarantined and acclimated in a SPF (specific pathogen free) laboratory for animal experimentations for seven days, and their states of health were simultaneously observed. Each of the rats was kept in a sterilized stainless cage. In the SPF laboratory for animal experimentations, the temperature was maintained at 20.6 to 22.5° C., and the relative humidity was maintained at 44 to 60%. In the SPF laboratory for animal experimentations, ventilation was provided fifteen times per hour. Regarding illumination in the SPF laboratory for animal experimentations, a bright state and a dark state were switched every 12 hours.
# As foods for rats, a standard dry food in stick-shape (whose components were already analyzed) was used. As drinking water, tap water which was confirmed to be within a range of the reference value was used, and the rats were allowed to freely drink it.
# The above-mentioned quarantined rats were randomly divided into the following three groups (four female rats and four male rats per group) by weight.
# (1) Group 1: the aqueous solution obtained in Working Example 1 was administered in a dose of 1 mL/kg.
# (2) Group 2: the aqueous solution obtained in Working Example 1 was administered in a dose of 2 mL/kg.
# (3) Group 3: the aqueous solution obtained in Working Example 1 was administered in a dose of 3 mL/kg.
# After the quarantined rats fasted overnight (for about 16 hours), the aqueous solution obtained in Working Example 1 was intravenously administered. Blood was collected 0.083 hours, 0.25 hours, 0.5 hours, 1 hour, 4 hours, and 24 hours after the administration, and the concentration of Compound (I) in the blood was measured. The maximum blood concentration, C0 (ng/mL), just after the composition for injection was intravenously administered, and the area under the blood concentration-time curve of Compound (I) over 0 to 24 hours after the administration, AUC0-24 (ng·h/mL), were calculated from the measured concentrations of Compound (I) in the blood at the collection times.
# [2] = cited from earlier work
# [3] = female rats, aqueous solution of Working Example 1, dose of Compound (I) 1 mg/kg (Group 1)
# [4] = female rats, aqueous solution of Working Example 1, dose of Compound (I) 2 mg/kg (Group 2)
# [5] = female rats, aqueous solution of Working Example 1, dose of Compound (I) 3 mg/kg (Group 3)
# [6] = male rats, aqueous solution of Working Example 1, dose of Compound (I) 1 mg/kg (Group 1)
# [7] = male rats, aqueous solution of Working Example 1, dose of Compound (I) 2 mg/kg (Group 2)
# [8] = male rats, aqueous solution of Working Example 1, dose of Compound (I) 3 mg/kg (Group 3)
compound,measurement,setting,value
"O=C(Nc1cc(C(F)(F)F)cc(C(F)(F)F)c1)c1cc(Cl)ccc1O [Compound (I), N-[3,5-bis(trifluoromethyl)phenyl]-5-chloro-2-hydroxybenzamide]",C0,[1]; [3],2150 ng/mL
same,AUC(0-t),[1]; [3],388 ng·h/mL
same,C0,[1]; [4],2820 ng/mL
same,AUC(0-t),[1]; [4],540 ng·h/mL
same,C0,[1]; [5],5250 ng/mL
same,AUC(0-t),[1]; [5],981 ng·h/mL
same,C0,[1]; [6],1380 ng/mL
same,AUC(0-t),[1]; [6],304 ng·h/mL
same,C0,[1]; [7],3210 ng/mL
same,AUC(0-t),[1]; [7],620 ng·h/mL
same,C0,[1]; [8],4850 ng/mL
same,AUC(0-t),[1]; [8],1260 ng·h/mL
same,Exposure of Compound (I) in vivo,"[1]; rats, aqueous solution of Working Example 1, 1 to 3 mL/kg",exposed in a dose-dependent manner and in a sufficient amount
same,Water solubility,[2],poor water solubility
